Assay results published in PubChem BioAssay (NCI).
Values joined by “and” are separate entries in the source; they are usually repeats but may differ in a detail not shown here. Equal values may be shown once.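 Compound exposure: 48 hours, 5 concentrations, 96-well plates. The concentration for 50% growth inhibition is given as GI50. At the TGI there is no net growth.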

Key:
Experiment in all cases: NCI tumour cell line growth inhibition, 48 h
DU-145 prostate = test system: DU-145 prostate
MDA-MB-231 breast = test system: MDA-MB-231 breast
NCI/ADR-RES ovarian = test system: NCI/ADR-RES ovarian
PC-3 prostate = test system: PC-3 prostate
T-47D breast = test system: T-47D breast
DLD-1 colon = test system: DLD-1 colon
DMS 273 small cell lung = test system: DMS 273 small cell lung
M19-MEL melanoma = test system: M19-MEL melanoma

## Nc1nc(/C=C\c2ccccc2)nc(N2CCN(c3ccccc3)CC2)n1
DU-145 prostate
  GI50: 39500 nM
  TGI: > 100 µM
MDA-MB-231 breast
  GI50: 19.2 µM
  TGI: 53.4 µM
NCI/ADR-RES ovarian
  GI50: 25.5 µM
  TGI: 93.3 µM
PC-3 prostate
  GI50: 27900 nM
  TGI: > 100 µM
T-47D breast
  GI50: 11.6 µM
  TGI: 41.9 µM

## CC(C)CCCCCCCCCCCCC(=O)NCC(=O)NC1C(O)C(O)C(Nc2ncnc3nc[nH]c23)OC1C(O)CO (stereo not drawn)
DLD-1 colon
  GI50: 10.4 nM
  TGI: 3.83 µM
DMS 273 small cell lung
  TGI: 1.74 nM
DU-145 prostate
  GI50: < 0.01 nM
M19-MEL melanoma
  GI50: 5 nM
  TGI: 40.9 nM and 15.6 nM
MDA-MB-231 breast
  GI50: < 1e-05 µM
  TGI: 0.38 µM
NCI/ADR-RES ovarian
  TGI: 0.124 µM and 0.0422 µM
PC-3 prostate
  GI50: < 0.01 nM
T-47D breast
  TGI: 0.917 µM

## C/C(=C(\c1ccc(OCCN2CCCCCC2)cc1)c1ccc(OC(=O)c2ccccc2)cc1)c1ccc(Cl)cc1
DU-145 prostate
  GI50: 5410 nM
  TGI: 11.3 µM
MDA-MB-231 breast
  GI50: 4.9 µM
  TGI: 9.96 µM
NCI/ADR-RES ovarian
  GI50: 4.56 µM
  TGI: 11.2 µM
PC-3 prostate
  GI50: 2360 nM
  TGI: 8.45 µM
T-47D breast
  GI50: 1.76 µM
  TGI: 7.47 µM

## C=CCC(N[C@H](CO)c1ccccc1)c1cn(Cc2ccccc2Cl)c(=O)n(Cc2ccccc2Cl)c1=O (stereo partly drawn)
DU-145 prostate
  GI50: 23500 nM
  TGI: 95.5 µM
MDA-MB-231 breast
  GI50: 3.74 µM
  TGI: 21.5 µM
NCI/ADR-RES ovarian
  GI50: 9.26 µM
  TGI: > 100 µM
PC-3 prostate
  GI50: 4030 nM
  TGI: 26.7 µM
T-47D breast
  GI50: > 100 µM
  TGI: > 100 µM

## CC(=O)C1=C(O)C=C2Oc3c(C(=O)/C=C/c4cc(Cl)cc(Cl)c4)c(O)c(C)c(O)c3[C@]2(C)C1=O
DU-145 prostate
  GI50: 622 nM
  TGI: 5.58 µM
MDA-MB-231 breast
  GI50: 0.541 µM
  TGI: 1.85 µM
NCI/ADR-RES ovarian
  GI50: 0.537 µM
  TGI: 1.96 µM
PC-3 prostate
  GI50: 537 nM
  TGI: 2.04 µM
T-47D breast
  GI50: 0.435 µM
  TGI: 1.36 µM

## COc1cc(C2c3cc4c(cc3C(OC(=O)C[n+]3ccccc3)C3COC(=O)C23)OCO4)cc(OC)c1OC (stereo not drawn)
DU-145 prostate
  GI50: < 18.4 nM
  TGI: > 100 µM
MDA-MB-231 breast
  GI50: < 0.0214 µM
  TGI: > 22.4 µM
NCI/ADR-RES ovarian
  GI50: < 0.0169 µM
  TGI: > 100 µM
PC-3 prostate
  GI50: < 18.7 nM
  TGI: > 100 µM
T-47D breast
  GI50: 41.2 µM
  TGI: > 100 µM

## COc1cc(C(=O)c2cnc(-c3cccc4[nH]ccc34)[nH]2)cc(OC)c1OC
DU-145 prostate
  GI50: 99.6 nM and < 10 nM
  TGI: > 100 µM
MDA-MB-231 breast
  TGI: 20.7 µM
NCI/ADR-RES ovarian
  GI50: 0.0729 µM and < 0.01 µM
  TGI: > 100 µM
PC-3 prostate
  GI50: 45.7 nM and < 10 nM
  TGI: > 100 µM

## Clc1ccccc1-c1nnc2c(Cc3ccccc3)nc3ccccc3n12
DU-145 prostate
  GI50: 55100 nM
  TGI: > 100 µM
MDA-MB-231 breast
  GI50: 7.09 µM
  TGI: > 100 µM
NCI/ADR-RES ovarian
  GI50: 12.7 µM
  TGI: > 100 µM
PC-3 prostate
  GI50: 4660 nM
  TGI: > 100 µM
T-47D breast
  GI50: 5.77 µM
  TGI: > 100 µM

## CCN(CC)CCCC(C)N/C(=C1\C(=O)NC(=O)\C1=C(/NC(C)CCCN(CC)CC)c1cccc(OC)c1)c1cccc(OC)c1 (stereo not drawn)
DU-145 prostate
  GI50: 1020 nM
  TGI: 4.5 µM
MDA-MB-231 breast
  GI50: 0.574 µM
  TGI: 1.47 µM
NCI/ADR-RES ovarian
  GI50: 1.36 µM
  TGI: 5.04 µM
PC-3 prostate
  GI50: 877 nM
  TGI: 2.56 µM
T-47D breast
  GI50: 1.3 µM
  TGI: 3.7 µM

## COC(=O)c1oc2c(C(=O)/C=C/c3ccc(OC)cc3)c(OCCN(C)C)ccc2c1C
DU-145 prostate
  GI50: 2820 nM
  TGI: 10.7 µM
MDA-MB-231 breast
  GI50: 8.33 µM
  TGI: 22.9 µM
NCI/ADR-RES ovarian
  GI50: 10.3 µM
  TGI: 28 µM
PC-3 prostate
  GI50: 8430 nM
  TGI: 21.7 µM
T-47D breast
  GI50: 3.1 µM
  TGI: 16.8 µM
